# Measured values from patent US11913020B2, “Method for improving stem cell migration using ethionamide” (Samsung Life Public Welfare Foundation, priority 2017, dated 2024).
# Tests used:
# CXCR4 = settings: treated with ethionamide for 72 hours; compared with stem cells not treated (Control)
# Protocol: To this end, the human mesenchymal stem cells prepared according to the method described in Example 1 were treated with ethionamide for 72 hours, and then lysed with TRIzol (Ambion, USA). Subsequently, following the addition of chloroform (Sigma Aldrich, USA) and centrifugation, only a supernatant was transferred to a new tube, treated with isopropanol (Amresco, USA), and centrifuged to precipitate RNA. Afterward, the precipitated RNA was treated with 75% ethanol (Merck Millipore, USA) for washing, and the completely dried RNA was dissolved in DEPC water (Biosesang, Korea). 5 μg of RNA extracted from the human mesenchymal stem cells treated or not treated with ethionamide by the above-described method was used for cDNA synthesis, and here, for the cDNA synthesis, a cDNA synthesis kit (Invitrogen, USA) was used. Afterward, 10 pM of a primer (Bioneer, Korea) specific for CXCR4, which is a gene related to stem cell migration, and a SYBR green master mix (Applied Biosystems, USA) were added to the synthesized cDNA, and cDNA was amplified using a real time-PCR device (Applied Biosystems, USA), followed by assessment of the amplified result to measure an initial amount of cDNA.
# [1] = system: human umbilical cord mesenchymal stem cells; settings: ethionamide 10 or 100 μM, 24 hours incubation; scratch observed after 14 hours; compared to control not treated
# Protocol: To this end, human umbilical cord mesenchymal stem cells (5×10^4 cells) prepared according to the method described in Example 1 were dispensed into a 6-well plate, and simultaneously treated with ethionamide at 10 or 100 μM, followed by incubation for 24 hours. Subsequently, to inhibit cell proliferation, the cells were treated with mitomycin C at 10 μg/mL to allow a reaction for 2 hours, a scratch was made on the plate using a tip, followed by exchanging the medium with a fresh medium.
# [2] = system: human umbilical cord mesenchymal stem cells; settings: ethionamide 10 or 100 μM, 24 hours incubation; compared to control not treated
# Protocol: To this end, the human umbilical cord mesenchymal stem cells (5×10^4 cells) prepared by the method described in Example 1 were dispensed into a Transwell plate (Costar, USA) with an 8.0 μm pore size, and treated with ethionamide at 10 or 100 μM, followed by incubation for 24 hours. Subsequently, the cells were fixed with 4% paraformaldehyde and stained with hematoxylin, the inner side of the Transwell was wiped with a cotton tip, and then the number of cells present on the bottom surface of the Transwell was measured using a microscope.
structure (smiles),measurement,setting,value
"CCc1cc(C(N)=S)ccn1 [ethionamide, 2-ethylpyridine-4-carbothioamide]",expression level of the CXCR4 gene,CXCR4,at least 4 fold
same,migration ability of human mesenchymal stem cells (number of migrating stem cells),[1],significantly increased
same,invasion ability of human mesenchymal stem cells (number of cells on bottom surface of Transwell),[2],significantly increased
